± gives the expanded uncertainty stated by the source.
Experiment: xn = mol fraction of the nth substance listed
Conditions: 101 kPa, Liquid; for speed of sound: Pulse-echo method; for mass density: Vibrating tube method

Nc1ccccc1 [aniline] + CCC(C)=O
Conditions | mass density [kg/m3] | speed of sound [m/s]
293.15 K, x2 = 0.058 | 1011.29 ± 0.095 | 1633.7 ± 0.94
293.15 K, x2 = 0.1122 | 1001.34 ± 0.089 | 1612.2 ± 0.93
293.15 K, x2 = 0.1576 | 993.678 ± 0.09 | 1594.7 ± 0.93
293.15 K, x2 = 0.2052 | 985.068 ± 0.093 | 1576 ± 0.92
293.15 K, x2 = 0.2543 | 976.056 ± 0.096 | 1556.7 ± 0.91
293.15 K, x2 = 0.3043 | 966.42 ± 0.099 | 1536.6 ± 0.91
293.15 K, x2 = 0.3562 | 956.208 ± 0.1 | 1515.5 ± 0.9
293.15 K, x2 = 0.4059 | 946.279 ± 0.11 | 1495.2 ± 0.9
293.15 K, x2 = 0.453 | 936.5 ± 0.11 | 1475.2 ± 0.89
293.15 K, x2 = 0.5048 | 925.617 ± 0.11 | 1453.2 ± 0.88
293.15 K, x2 = 0.5443 | 917.103 ± 0.12 | 1435.8 ± 0.88
293.15 K, x2 = 0.612 | 902.143 ± 0.12 | 1405.4 ± 0.87
293.15 K, x2 = 0.648 | 894.022 ± 0.12 | 1389 ± 0.86
293.15 K, x2 = 0.7044 | 880.787 ± 0.13 | 1362.1 ± 0.86
293.15 K, x2 = 0.7754 | 863.737 ± 0.13 | 1328.6 ± 0.85
293.15 K, x2 = 0.8081 | 855.598 ± 0.14 | 1311.3 ± 0.84
293.15 K, x2 = 0.8493 | 845.213 ± 0.14 | 1290.5 ± 0.83
293.15 K, x2 = 0.9027 | 831.249 ± 0.14 | 1262.9 ± 0.83
293.15 K, x2 = 0.9476 | 819.373 ± 0.15 | 1239.6 ± 0.82
298.15 K, x2 = 0.056 | 1007.34 ± 0.091 | 1615.4 ± 0.93
298.15 K, x2 = 0.1188 | 997.647 ± 0.089 | 1593.6 ± 0.93
298.15 K, x2 = 0.1547 | 990.216 ± 0.093 | 1576.9 ± 0.92
298.15 K, x2 = 0.2038 | 981.189 ± 0.095 | 1557.5 ± 0.91
298.15 K, x2 = 0.2563 | 971.23 ± 0.098 | 1536.5 ± 0.91
298.15 K, x2 = 0.3064 | 961.559 ± 0.1 | 1516.3 ± 0.9
298.15 K, x2 = 0.3474 | 953.414 ± 0.1 | 1499.6 ± 0.9
298.15 K, x2 = 0.4089 | 940.989 ± 0.11 | 1474.1 ± 0.89
298.15 K, x2 = 0.4523 | 932.032 ± 0.11 | 1455.8 ± 0.88
298.15 K, x2 = 0.5026 | 921.385 ± 0.11 | 1434.1 ± 0.88
298.15 K, x2 = 0.5467 | 911.916 ± 0.12 | 1414.9 ± 0.87
298.15 K, x2 = 0.6019 | 899.666 ± 0.12 | 1390 ± 0.86
298.15 K, x2 = 0.6481 | 889.131 ± 0.12 | 1368.5 ± 0.86
298.15 K, x2 = 0.7048 | 875.989 ± 0.13 | 1341.9 ± 0.85
298.15 K, x2 = 0.7451 | 866.153 ± 0.13 | 1322 ± 0.84
298.15 K, x2 = 0.803 | 851.853 ± 0.14 | 1293.2 ± 0.83
298.15 K, x2 = 0.8487 | 840.349 ± 0.14 | 1270.1 ± 0.83
298.15 K, x2 = 0.9019 | 826.554 ± 0.14 | 1242.8 ± 0.82
298.15 K, x2 = 0.9489 | 813.934 ± 0.15 | 1218 ± 0.81
303.15 K, x2 = 0.0582 | 1002.61 ± 0.091 | 1596.1 ± 0.93
303.15 K, x2 = 0.1097 | 993.104 ± 0.093 | 1575.6 ± 0.92
303.15 K, x2 = 0.1485 | 986.049 ± 0.094 | 1560.3 ± 0.92
303.15 K, x2 = 0.205 | 975.667 ± 0.097 | 1538 ± 0.91
303.15 K, x2 = 0.2507 | 967.388 ± 0.099 | 1520.3 ± 0.9
303.15 K, x2 = 0.3064 | 956.964 ± 0.1 | 1497.9 ± 0.9
303.15 K, x2 = 0.3426 | 949.873 ± 0.1 | 1483 ± 0.89
303.15 K, x2 = 0.414 | 935.434 ± 0.11 | 1453.3 ± 0.88
303.15 K, x2 = 0.447 | 928.634 ± 0.11 | 1439.5 ± 0.88
303.15 K, x2 = 0.491 | 919.218 ± 0.11 | 1420.3 ± 0.87
303.15 K, x2 = 0.5537 | 905.656 ± 0.12 | 1392.7 ± 0.86
303.15 K, x2 = 0.6044 | 894.417 ± 0.12 | 1369.8 ± 0.86
303.15 K, x2 = 0.6434 | 885.415 ± 0.12 | 1351.5 ± 0.85
303.15 K, x2 = 0.7038 | 871.181 ± 0.13 | 1322.6 ± 0.84
303.15 K, x2 = 0.7716 | 854.721 ± 0.13 | 1289.4 ± 0.83
303.15 K, x2 = 0.8079 | 845.614 ± 0.14 | 1271.1 ± 0.83
303.15 K, x2 = 0.8481 | 835.388 ± 0.14 | 1250.6 ± 0.82
303.15 K, x2 = 0.8988 | 822.096 ± 0.14 | 1224.2 ± 0.81
303.15 K, x2 = 0.9466 | 809.221 ± 0.15 | 1199 ± 0.81

Source: the NIST ThermoML archive (doi:10.1021/je100472t)
